{"source": "patent US11179474B1", "about": "“Nanoparticle-based liver-targeting therapy and imaging” (priority 2015, dated 2021)", "molecules": {"B1": {"name": "GNP-GalC2-HSPEG8COOH-HSPEG8CO… ″low loading″ (peptide)", "peptide": "RLNVGGTYFLTTRQ", "modifications": "not fully specified (N-terminus); printed as GNP-GalC2-HSPEG8COOH-HSPEG8CONHRLNVGGTYFLTTRQ ″low loading″; also: on gold nanoparticle with galactose-C2 corona", "notes": "Same construct as the high loading GNP but with fewer peptides per nanoparticle; also called \"low loading\" Au@Gal-C2:HSPEG8COOH:HSPEG8CO… GNPs"}, "B2": {"name": "GNP-GalC2(50)-AL(50)-(Ac)YFLTTRQ (peptide)", "peptide": "YFLTTRQ", "modifications": "not fully specified (N-terminus); printed as GNP-GalC2(50)-AL(50)-(Ac)YFLTTRQ; also: linked via amino linker NH2-EG6-SH to gold nanoparticle with galactose-C2 corona", "notes": "Gold nanoparticle with a corona of galactose-C2-SH and amino linker in approximately 50:50 ratio; also called Au@GalC2:AL:AL-(Ac)-YFLTTRQ"}, "B3": {"name": "GNP-GalC2-HSPEG8COOH-HSPEG8CO… ″high loading″ (peptide)", "peptide": "RLNVGGTYFLTTRQ", "modifications": "not fully specified (N-terminus); also: on gold nanoparticle with galactose-C2 corona", "notes": "Gold nanoparticle with a corona of galactose-C2 and HSPEG8COOH ligands; Approximately 4 peptides per nanoparticle core, so the copy number is approximate; also called \"high loading\" Au@Gal-C2:HSPEG8COOH:HSPEG8CO… GNPs"}}, "key": {"HepG2": {"test_system": "HepG2", "assay": "MTT cell viability assay, payload-carrying LacLL nanoparticles vs free drug", "assay_type": "cell-based, human", "conditions": "for IC50: HepG2, concentration based on drug amount, FIG. 7: 72 h after treatment", "method": "The human hepatocellular carcinoma cell line HepG2 was used in the assay.\nHepG2 cells were grown in a T-75 flask. For the transfer of the cell the medium was removed from the flask and the cells were trypsinated for 5 minutes. The cells were collected in a Falcon tube and diluted with complete cell medium. The cell counting was conducted in a Neubauer chamber. A cell solution was prepared to seed 4000 cells per well (200 μL per well). The microtiter plate was incubated for 24 h at 37° C.\nFor each NP and drug, formulations in cell medium were prepared. The compounds were tested in different concentrations (0.01, 0.05, 0.2, 1, 5, 25 and 125 μM based on drug amount). For the treatment, the cell medium was removed from all wells and exchanged for drug formulations. 200 μl of treatments per triplicate was added to each well. The microtiter plates were incubated for 24 h, 48 h and 72 h at 37° C.\n1.5 mL MTT solution (8.0 mg in 1.6 mL DMSO) was diluted with complete cell medium (phenol-red free). The treatment cell medium was removed from the microtiter plate, the wells were washed with 100 μL PBS and 100 μL of the MTT reactive solution was added to each well. After one hour incubation at 37° C. the MTT solution was removed and 100 μL DMSO was added to dissolve the formazan dye. Absorbance was measured at 570 nm.\nData were analysed using OriginPro8. The normalized data were plotted and the curve was fitted using a non-linear regression curve fit (sigmoidal dose-response curve with variable slope). The Absolute IC50 values were obtained by interpolation."}, "HCC cells": {"test_system": "HCC cells", "assay": "In vitro targeting of GNPs to HCC cells (counts per field at 20x magnification)", "assay_type": "cell-based", "conditions": "relative to base GNP lacking the peptide", "source_text": "(SEQ ID NO: 1), via its N-terminus (approx. 4 peptide molecules per nanoparticle).\nSeveral base/peptide targeted GNPs were screened in vitro. GNPs having a mixed corona comprising galactose-C2-SH (Gal-C2) ligands and HSPEG8COOH were synthesised according to methodology analogous to that described above in Examples 1 and 2, with however galactose-C2-SH replacing glucose-C2-SH and HSPEG8COOH (also abbreviated SH-EG6-COOH or SH—(OCH2CH2)6-COOH) replacing the amino linker NH2-EG6-SH.\nThe glypican-3 peptide described in U.S. Pat. No. 8,388,937B2 (the contents of which are expressly incorporated herein by reference)—see SEQ ID NO: 1 thereof, which has the amino acid sequence: […] (SEQ ID NO: 1) was linked to the terminal COOH group of a proportion of the HSPEG8COOH ligands via the N-terminus of said peptide. In a “high loading” GNP construct (see row 1 in the table below), approximately 4 peptides were linked per nanoparticle core. The “high loading” Au@Gal-C2:HSPEG8COOH:HSPEG8CONH[…] The “low loading” Au@Gal-C2:HSPEG8COOH:HSPEG8CONH[…]"}, "[1]": {"target": "T1, glypican-3 (on HCC cells) (UniProt P51654 25-554)", "T1 construct": "whole, on cells; also called GLY-3", "T1 sequence (P51654 25-554 limits assumed, form in doubt)": "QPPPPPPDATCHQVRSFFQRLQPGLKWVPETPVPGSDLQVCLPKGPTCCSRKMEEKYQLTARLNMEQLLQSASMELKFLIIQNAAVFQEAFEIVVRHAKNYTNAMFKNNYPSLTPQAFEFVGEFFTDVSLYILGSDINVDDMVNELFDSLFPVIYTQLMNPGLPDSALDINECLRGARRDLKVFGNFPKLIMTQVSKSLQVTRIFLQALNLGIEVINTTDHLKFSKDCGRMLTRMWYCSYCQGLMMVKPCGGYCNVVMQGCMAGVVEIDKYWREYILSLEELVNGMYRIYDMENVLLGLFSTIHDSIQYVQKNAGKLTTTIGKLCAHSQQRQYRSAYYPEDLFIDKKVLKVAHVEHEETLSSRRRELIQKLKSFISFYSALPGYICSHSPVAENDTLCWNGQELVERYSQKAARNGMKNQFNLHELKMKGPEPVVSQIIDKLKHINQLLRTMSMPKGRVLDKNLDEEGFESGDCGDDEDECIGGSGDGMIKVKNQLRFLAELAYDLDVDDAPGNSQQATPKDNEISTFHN", "assay": "in vitro targeting of GNPs to HCC cells, relative to base GNP lacking the peptide"}, "[2]": {"target": "T1, glypican-3 (on HCC cells)", "assay": "in vitro targeting of GNPs to HCC cells, relative to base nanoparticle lacking the peptide"}, "[3]": {"target": "T1, glypican-3 (on HCC cells)", "assay": "in vitro targeting of GNPs to HCC cells, counts per field at 20x magnification, relative to base GNP lacking the peptide"}}, "note": "Where no end group is shown, it is not given here.", "data": [{"molecule": "platinum-(IV)-succinate", "values": [{"measurement": "IC50", "setting": "HepG2", "value": 38.6, "unit": "µM"}, {"measurement": "IC50", "setting": "HepG2; listed as Pt(IV)-succinate", "value": 38.6, "unit": "µM"}]}, {"molecule": "GNP-GalC2-HSPEG8COOH-HSPEG8CONHRLNVGGTYFLTTRQ ″high loading″ (not fully specified (N-terminus); also: on gold nanoparticle with galactose-C2 corona)", "values": [{"measurement": "Fold-targeting (over base particle)", "setting": "HCC cells; listed as “high loading” Au@Gal-C2:HSPEG8COOH:HSPEG8CONHRLNVGGTYFLTTRQ", "value": "approximately 7 fold"}]}, {"molecule": "GNP-GalC2(50)-AL(50)-(Ac)YFLTTRQ", "values": [{"measurement": "Fold-targeting (over base particle)", "setting": "HCC cells; listed as Au@GalC2:AL:AL-(Ac)-YFLTTRQ", "value": "approximately 5 fold"}]}, {"molecule": "COc1cccc2c1C(=O)c1c(O)c3c(c(O)c1C2=O)C[C@@](O)(C(=O)CO)C[C@@H]3O[C@H]1C[C@H](N)[C@H](O)[C@H](C)O1", "note": "[Doxorubicin, doxorubicin]", "values": [{"measurement": "cytotoxicity, free drug compared with pay-loaded nanoparticle", "setting": "HepG2; HepG2, MTT", "value": "slightly higher cytotoxicity"}]}, {"molecule": "GNP-GalC2-HSPEG8COOH-HSPEG8CONHRLNVGGTYFLTTRQ ″low loading″ (not fully specified (N-terminus); printed as GNP-GalC2-HSPEG8COOH-HSPEG8CONHRLNVGGTYFLTTRQ ″low loading″; also: on gold nanoparticle with galactose-C2 corona)", "values": [{"measurement": "Fold-targeting (over base particle)", "setting": "HCC cells; listed as “low loading” Au@Gal-C2:HSPEG8COOH:HSPEG8CONHRLNVGGTYFLTTRQ", "value": "approximately 4.6 fold"}]}, {"molecule": "B1", "values": [{"measurement": "Fold-targeting (over base particle)", "setting": "[1]", "value": 4.6, "unit": "fold"}]}, {"molecule": "B2", "values": [{"measurement": "Fold-targeting (over base particle)", "setting": "[2]", "value": 5, "unit": "fold"}]}, {"molecule": "B3", "values": [{"measurement": "Fold-targeting (over base particle)", "setting": "[3]", "value": 7.1, "unit": "fold"}]}]}
